Here are results for 5 compounds from patent US4513008A, “Virucidal compositions and therapy” (The Vinoxen Company, Inc., priority 1982, dated 1985).

The test system of one data set is herpes virus type 2. Kind of data set: Guinea pig bioassay: intravaginal HSV-2 infection, topical treatment. It counts as in vivo. Further details: key to MVL Score Day 5 / MVL Score Day 6 / MVL Score Day 7 / MVL Score Day: lesion severity scored on 0 to 4 scale. As for the experimental part:
In both studies, DHA was compared with ACV in a controlled study for effectiveness in reducing the occurrence and the severity of lesions resulting from infection by HSV-2 and in reducing mortality resulting from the virus infection.
Using substantially the procedures of Pancic et al., loc. cit., the topical activity of DHA, a representative and preferred virucide for use in the present method, was evaluated in mice and in guinea pigs. Both evaluations included comparative testing against ACV and the mouse tests included a comparison of two different vehicles.
A blind comparative test was carried out on guinea pigs using coded substances labeled A through D. The testers were told only that one of the four substances was ACV, that the other three coded samples were the same material, in concentrations of 0.1, 1.0 and 10 mg/ml, and that all four samples were formulated in a polyethylene glycol 1000 (PEG-1000) vehicle. A separate sample of the PEG-1000 was also submitted to serve as a placebo for treating virus control animals. The materials and experimental protocol is shown below.
Animals. Female Hartley strain albino guinea pigs weighing about 450-500 g were used. The animals were quarantined 24 hr prior to use in this study, and maintained 5 to a 32"×32"×9" stainless steel cage on Wayne guinea pig diet and water ad libitum.
Virus. Strain E194 of herpes virus type 2 was used. […] The virus was held at -90° C. until used.
(§1) Drugs. The substances tested consisted of four bottles labelled "A", "B", "C", and "D" with no identifying key. The samples were: A, 0.1 mg/ml DHA (0.003 mmol/ml); B, 5% w/w ACV (0.22 mmol/ml); C, 1 mg/ml DHA (0.03 mmol/ml); and D, 10 mg/ml DHA ([…]). […] All were treated as light-sensitive compounds.
Experimental Protocol. The guinea pigs were infected by applying a virus-soaked swab intravaginally, with agitation, for 20 seconds. […] Treatment began 20 hr later, with the compound or placebo applied topically intravaginally, perivaginally, and perianally using cotton swabs soaked in the respective substance. Treatment continued three times daily (8 a.m., noon, 4 p.m.) for 7 days. Ten infected animals were used for each coded substance, with twenty used for virus controls. Five sham-infected animals were concomitantly treated with each coded substance to serve as toxicity controls. Two guinea pigs were held separately to serve as normal untreated controls.
On days 5 through 8 post-virus inoculation, the genital area was carefully examined and signs of irritation in the toxicity controls and lesion severity in injected animals was scored on a 0 to 4 scale using the same scale as in the mouse bioassay. The results were scored as average daily lesion (ADL) scores for each group, and as mean vaginal lesion (MVL) scores, calculated as the mean of the ADL scores for days 5-8. The maximum mean score for the toxicity control animals was also determined.
On day 6 prior to the 8 a.m. treatment, intravaginal and perivaginal areas of each infected guinea pig were uniformly swabbed with sterile cotton swabs. The swab for each animal was placed in 1.0 ml of sterile Eagles minimum essential medium and immediately frozen at -90° C.; several days later all were thawed and each swab-containing sample vortexed for 15 seconds and then the sample was diluted through a series of 10-fold dilutions in sterile medium. Each dilution was assayed for virus in triplicate by adding 0.1 ml to an established monolayer of MA-104 cells in 96-well disposable plastic microplates. The plates were sealed, incubated at 72 hr at 37° C., and virus-induced cytopathic effect noted microscopically.
Data Analysis. Increases in survivors were analyzed using chi square analysis with Yate's correction. Mean survival times (MST) of animals dying on or before […] were determined for each group, and evaluated using the t test.

Data set [1] in a line: Guinea pig toxicity controls (sham-infected, topical treatment). It is filed as in vivo, guinea pigs. The note with it: B: 5% w/w ACV in PEG-1000. The protocol: as §1
Experimental Protocol. The guinea pigs were infected by applying a virus-soaked swab intravaginally, with agitation, for 20 seconds. Toxicity control animals were similar pretreated using swabs soaked in sterile Puck's balanced salt solution. Treatment began 20 hr later, with the compound or placebo applied topically intravaginally, perivaginally, and perianally using cotton swabs soaked in the respective substance. Treatment continued three times daily (8 a.m., noon, 4 p.m.) for 7 days. Ten infected animals were used for each coded substance, with twenty used for virus controls. Five sham-infected animals were concomitantly treated with each coded substance to serve as toxicity controls. Two guinea pigs were held separately to serve as normal untreated controls.
Each animal was observed daily for survival for a total of 28 days. On days 5 through 8 post-virus inoculation, the genital area was carefully examined and signs of irritation in the toxicity controls and lesion severity in injected animals was scored on a 0 to 4 scale using the same scale as in the mouse bioassay. The results were scored as average daily lesion (ADL) scores for each group, and as mean vaginal lesion (MVL) scores, calculated as the mean of the ADL scores for days 5-8. The maximum mean score for the toxicity control animals was also determined.

Another data set relates to HSV-2. Kind of data set: In vivo mouse bioassay: intravaginal HSV-2 infection, topical treatment. Further details: species or system HSV-2 strain 333 in female Swiss Webster mice; key to Max. Lesion Score: 0: no clinical signs of vaginal infection; ±: slight perivaginal redness; perivaginal redness and swelling of 1-2 mm; perivaginal redness and swelling of 2-3 mm; perivaginal and perianal redness and swelling of 3-4 mm; perivaginal and perianal redness and swelling of 4 mm or more, with exudate. The note with it: for # Infected, Day 14 / # of Deaths, Day 14: 10 animals/group.

Data set [2] has as its system gram-positive and gram-negative microorganisms. The note with it: cited from earlier work.
The test system of a further data set is PR4 bacteriophage. The note with it: PR4 bacteriophage in vitro; cited from earlier work.
The test system of data set [3] is herpes simplex virus type 2 (HSV-2). Kind of data set: In vitro HSV-2 bioassay: virucidal plaque assay (HEP-2 cells). It is filed as cell-based, HSV-2 strain 333. The note with it: for plaque count: TNTC = too numerous to count. As for the experimental part:
Evidence of the efficacy of the virucides of the invention in vitro has been obtained from bioassay using HSV-2, using a standard assay procedure. Serial dilutions of the compounds were tested for their ability to prevent plaque formation by a stock virus suspension. Reduction of plaque titer by test compounds as compared to mock treated controls was indicative of virucidal activity. […] These represent the upper limit for the drug concentration, since dilutions were not carried beyond 1:6400 and in some cases 1:12800.
Cell Culture. Cell cultures used for the propagation and titration of HSV-2 were the human diploid lung embryonic line MRC-5 and the human malignant epitheloid cell line HEP-2 respectively. Stock monolayer cultures of both cell lines were propagated in Dulbecco's Modified Eagle's medium (DME) supplemented with 10% (V/V) calf serum. Spinner cultures for mass production of HEP-2 cells were grown in Joklik's medium supplemented with 10% (V/V) calf serum and 1% (W/V) pluronic acid. Monolayer cultures of HEP-2 cells for plaque or virucidal assay were seeded into 60 mm dishes in DME supplemented with 10% calf serum and antibiotics. Stock cultures were maintained in antibiotic free medium.
Herpes simplex virus, type 2 (HSV-2) strain 333 was obtained from Dr. John Hughes of the Dept. of Medical Microbiology, College of Medicine, The Ohio State University. Stocks of HSV-2 were prepared in the human diploid embryonic lung cell line, MRC-5. Confluent MRC-5 monolayer cultures in T-75 plastic flasks were washed one time with Hank's and Balanced Salt solution (HBSS) and infected with 0.5 ml of HSV-2, strain 333 stock. Virus was adsorbed for 1 hour at 37° C. Then the culture was refed with 15 ml of DME supplemented with 1% (V/V) calf serum. Virus was harvested 48 hours later when cytopathology was complete. Cultures were frozen and thawed rapidly three times to release cell associated virus, clarified by centrifugation at 10,000×g for 15 minutes at 4° C., aliquoted into 5 ml lots and frozen at -70° C. One lot was taken for virus titration.
HSV-2 was titrated by plaque assay in HEP-2 cells under a semi-solid methyl cellulose overlay. Tenfold serial dilutions of virus were prepared in HBSS and 0.3 ml aliquots of each dilution inoculated onto triplicate HEP-2 cell monolayers in 60 mm plastic petri dishes. Adsorption of virus was for 1 hour at 37° C. Plates were then overlayed with 5 ml of a 1:1 mixture of 2×DME supplemented with 2% (V/V) calf serum and 3% (W/V) methyl cellulose to give a final 1×DME supplemented with 1% calf serum and 1.5% methylcellulose. Infected plates were incubated at 37° C. in a humidified 10% CO2 atmosphere for 48 hours. Virus plaques were visualized by staining with crystal violet and counted under a dissecting microscope. Virus titers were calculated from the plaque numbers by averaging the plaque count and multiplying by 3.3 (0.3 ml plates).
The following procedure was employed to assay virucidal activity in various test samples. Compounds were received as a solution in DMSO and were serially diluted in HBSS as described for each experiment. For the test, 1 ml of each dilution was mixed with 1 ml of a stock virus suspension diluted to approximately 9×10^3 plaque forming units (P.F.U.)/ml. This test mixture was incubated at 25° C. for 30 minutes, then inoculated onto a cell culture (HEP-2) for plaque assay as described previously. Mock treated (virus plus HBSS) controls were included with each test. Any reduction of plaque titer by test compounds as compared to the mock treated control was indicative of virucidal activity.
Samples from RP-HPLC fractionation of the CLOH, produced according to Example 2, as well as purified samples of palmitic, myristic and oleic acids and Vitamin D2, were tested for HSV-2 bioactivity. […] Pure oleic acid was not active in this assay, nor were palmitic and myristic acids and Vitamin D2. […]

Another data set concerns bacteriophage. Conditions: cited from earlier work.
In a further data set the test system is virus. Conditions: cited from earlier work.

Turning to `Nc1nc2c(ncn2COCCO)c(=O)[nH]1` [Acyclovir, 9-(2-hydroxyethoxymethyl)guanine, reference compound], in the data set on herpes virus type 2 (B: 5% w/w ACV in PEG-1000), the “MVL Score Day 5” value was 1.8 and the “MVL Score Day 7” value was found to be 3.4. Also, the “MVL Scores Days 5-8” value with herpes virus type 2 (B: 5% w/w ACV in PEG-1000, 0 to 4 scale) is reported as 2.8. Besides, the “Infected, Treated Surv/Total” value in the data set on herpes virus type 2 (B: 5% w/w ACV in PEG-1000, 28 days) was 5/10. Moreover, the “MVL Score Day 6” value in the data set on herpes virus type 2 (B: 5% w/w ACV in PEG-1000, P < 0.05) stood at 2.3. Moreover, the “MVL Score Day” value in the data set with herpes virus type 2 (B: 5% w/w ACV in PEG-1000, last day) worked out at 3.3. For the same compound, in the data set with herpes virus type 2 (guinea pigs, topical), the “reduction in lesion scores, in words” value was “neither ACV nor the lowest dosage of DHA were able to achieve a statistically significant reduction in lesion scores”. For the same compound, the “Toxicity Controls Surv/Total” value in data set [1] is reported as 5/5. In data set [1] (0 to 4 scale), the “Toxicity Controls Max. Irrit. Score” value is reported as 0.0. Also, in the data set with HSV-2 (ACV 5% wt/vol in DMSO), the “Max. Lesion Score” value was “±”; the “# Infected, Day 14” value stood at 3; the “# of Deaths, Day 14” value came out at 0. Also, in the data set on HSV-2 (ACV 5% wt/vol in PEG), the “Max. Lesion Score” value was “±”; the “# Infected, Day 14” value stood at 4; the “# of Deaths, Day 14” value is 0. In the data set with HSV-2 (DMSO & Acyclovir (5%)), the “% Mortality” value is given as 0%, the “Day of Maximum % Morbidity” value stood at 7 days, the “Maximum % Morbidity” value is 30% and the “Mean Day of Death” value is over 14 days. Also, in the data set on HSV-2 (Ointment & Acyclovir (5%)), the “% Mortality” value was found to be 0%, the “Day of Maximum % Morbidity” value was 7 days, the “Maximum % Morbidity” value amounted to 40% and the “Mean Day of Death” value was over 14 days. The same compound came in with a survival rate with HSV-2 (both carrier vehicles, observed 14 day period) of 100%. Also, the “efficacy in mice in words” value with HSV-2 (topical, HSV-2 infected mice) is given as “effective in minimizing the clinical signs of infection in either carrier vehicle”.
For the compound `CCCCC/C=C\C/C=C\C/C=C\C/C=C\CCCC(=O)O` [Arachidonic acid], in data set [2], the “inhibition of growth of microorganisms, in words” value is “not inhibitory at the concentrations tested”. Further, in the data set on PR4 bacteriophage, the “inhibition of viral replication, in words” value was “moderately effective, but less effective than linolenic acid”.
Take `CCCCCCCC/C=C\CCCCCCCC(=O)O` [Oleic acid, reference compound]: the plaque count in data set [3] (Table 1, dilution 1:10) is recorded as 36; in data set [3] (Table 1, dilution 1:100) it was “TNTC”; in data set [3] (Table 1, dilution 1:200) it was “TNTC”; in data set [3] (Table 1, dilution 1:400), “TNTC”; in data set [3] (Table 1, dilution 1:800) it was “TNTC”; in data set [3] (Table 1, dilution 1:1600) it was “TNTC”. In addition, the plaque count result in data set [3] (Table 1, dilution 1:3200) is “TNTC”; in data set [3] (Table 1, dilution 1:6400), “TNTC”. Also, the titer in data set [3] (Table 1, dilution 1:10, controls 2.6 × 10^4 (a), 1.3 × 10^4 (b)) is 1.2 × 10^2. For the same compound, the “virucidal activity against HSV-2 in words” value in data set [3] (in vitro bioassay) is given as “not active”. Further, the “inhibition of viral replication, in words” value in the data set with PR4 bacteriophage is given as “most effective”. The “inactivation of virus (virucidal activity), in words” value with bacteriophage is “most effective fatty acid tested”.
`CCCCCC=CCC=CCC=CCCCCCO` [gamma-linolenyl alcohol, 6,9,12-octadecatrien-1-ol]: the “antiviral activity in vitro, in words” value in the data set with virus is given as “most active”.
As for `CCCCCC/C=C\CCCCCCCC(=O)O` [palmitoleic acid], in the data set with PR4 bacteriophage, the “inhibition of viral replication, in words” value is given as “most effective”.
